# Results from patent US5856506A, “Phosphatase inhibitors and methods of use thereof” (University of Pittsburgh, priority 1997, dated 1999).
# Columns and labels:
# MDA-MB-231 cells = assay: Cell cycle distribution by flow cytometry (propidium iodide); assay type: cell-based, human; conditions: for cell cycle distribution: 88 μM, MDA-MB-231
# From the text: FIGS. 10A-D depict cell cycle distribution of human breast cancer cells after treatment with compound 1f determined by flow cytometry. […] Fluorescence channel measures intracellular propidium iodide concentration, an index of DNA content. Horizontal bars are the gating positions that allow for cell cycle analysis. […] Open bars are control cells and black bars are cells treated with compound 1f. […] The mean values were obtained from three independent determinations. Open bars are control cells and black bars are cells treated with 88 μM compound 1f.
# MDA-MB-231 cells (6.5×10^5 /cm^2) were plated and incubated at 37° C. for 48 h. The plating medium was then aspirated off, and medium containing a concentration of compound 1f that caused approximately 50% growth inhibition (88-100 μM) was added for 48 to 72 h. Untreated cells at a similar cell density were used as control populations. Single cell preparations were fixed in ice-cold 1% paraformaldehyde, centrifuged at 1,000×g for 5 min, resuspended in Puck's saline, centrifuged, and resuspended in ice-cold 70% ethanol overnight. The cells were removed from fixatives by centrifugation (1,000×g for 5 min) and stained with a 5 μg/mL propidium iodide and 50 μg/mL RNase A solution. Flow cytometry analyses were conducted with a Becton Dickinson FACS Star. Single parameter DNA histograms were collected for 10,000 cells, and cell cycle kinetic parameters calculated using DNA cell cycle analysis software version C (Becton Dickinson). Experiments at 72 h were performed at least 3 independent times.
# PP3 = assay: Phosphatase activity by [32P] release from phosphorylase-a or phosphohistone (Honkanen method); assay type: biochemical; conditions: 100 μM inhibitor; none = 100
# Protocol: (§1) It has been found in accordance with the present invention that compounds of formula I are capable of inhibiting serine/threonine protein phosphatases. Inhibition of serine/threonine protein phosphatases is defined herein as inhibition of the activity of one or more of PP1, PP2A or PP3 at a concentration of 100 μM or less of the inhibitor compound. In a preferred embodiment, the activity of the phosphatase is inhibited by at least 10%. In more preferred embodiments, the activity of the phophatase is inhibited by at least 25%, or even more preferably, by at least 50%. Inhibition of PP1, PP2A or PP3 can be assessed by methods known to one of ordinary skill in the art. Suitable assays are described, for example by Honkanen et al. (1994) Toxicon 32:339 and Honkanen et al. (1990) J. Biol. Chem. 265: 19401, the disclosures of which are incorporated herein by reference. Briefly, phosphatase activity is determined by quantifying the [^32 p] released from a ^32 p-labeled substrate such as phosphohistone or phosphorylase-a. Decreased [^32 p] release in the presence of the compounds of the present invention relative to control samples provides a measure of the ability of the compounds of the invention to inhibit PP1, PP2A or PP3.
# (§2) Phosphatase activity and the inhibitory activity of the compounds of Table 1 were determined by the method of Honkanen et al. (1994) Toxicon 32:339. Briefly, phosphatase activity against phosphorylase-a or phosphohistone was 25 determined by the quantification of liberated [^32 p]. Assays, 80 μl total volume, containing 50 mM Tris-HCl, pH 7.4, 0.5 mM DTT, 1 mM EDTA (assay buffer) and [^32 p]phosphoprotein (1-2 μM PO4), were conducted as described previously (Honkanen et al., 1991 Mol. Pharmac. 40:577). Dephosphorylation reactions were routinely conducted for 5-10 min. using phosphorylase-a as a substrate and for 10-20 min. using phosphohistone. In all assays the dephosphorylation of substrate was kept to less than 10% of the total phosphorylated substrate available, and the reactions were adjusted to ensure that enzyme activity was linear with respect to enzyme concentration and time. [^32 p]Phosphate liberated by the enzymes was extracted as a phosphomolybdate complex and measured according to the methods of Killilea et al. (1978) Arch. Biochem. Biophys. 191:638. Inhibition of protein phosphatase activity by inhibitors was determined by adding the 100 μM of inhibitors to the enzyme mixture 5-10 min. prior to initiating the reaction with the addition of substrate.
# PP1 = assay: as above; assay type: biochemical; conditions: 100 μM inhibitor; none = 100
# Protocol: as §1, §2
# PP2A = PP2A (Bos taurus, UniProt P67774); assay: as above; assay type: biochemical; conditions: 100 μM inhibitor; none = 100; read-out: PP2A, percent inhibition relative to control (100%)
# Protocol: as §1, §2
# Recombinant human CDC25B = assay: CDC25B phosphatase assay, GST fusion protein, fluorescein diphosphate; assay type: biochemical; conditions: none = 100; 1 hour preincubation; concentration not given (0.3-100 μM tested)
# Protocol: The compounds of the present invention are also capable of inhibiting dual specificity phosphatases, for example CDC25A and CDC25B. Phosphatases CDC25A and CDC25B are disclosed in U.S. Pat. No. 5,441,880. Inhibition of dual specificity phosphatases is defined herein as inhibition of the activity of CDC25A and/or CDC25B at a concentration of 100 μM of the inhibitor compound. In a preferred embodiment, the activity of the phosphatase is inhibited by at least 10%. In more preferred embodiments, the activity of the phophatase is inhibited by at least 25%, or even more preferably, by at least 50%. The ability of the compounds of the present invention to inhibit the phosphatases can be determined by measuring the effect of the compounds on the ability of CDC25 or CDC25B to dephosphorylate a substrate. Appropriate methods are known to those of ordinary skill in the art, and include, for example, calorimetric assays. A suitable assay is described in U.S. Pat. No. 5,441,880, the disclosure of which is incorporated herein by reference. […] The assay may be performed as a rapid calorimetric microtitration plate assay.
# Compounds 1a-1r were assessed for ability to inhibit CDC25A and CDC25B activity. Recombinant human CDC25A and CDC25B were obtained as a glutahione-S-transferase (GST) fusion protein using human cDNA and standard molecular biological methods. The cDNA constructs are in a plasmid that is expressed in E. coli under the control of isopropyl-beta-D-[…] (IPTG). The bacterial pellet was disrupted by sonication, and centrifuged at 10,000×g. Using glutathione-agarose beads, the fusion protein was purified from postmicrosomal supernant fraction as described by Baratte et al. (1992) Anticancer Res. 12: 873-880. Phosphatase activity was assayed with a spectrofluorimeter under the following conditions: 1 unit (1 U=amount of protein that induces 33 fluoresence units/minute of product) of fusion protein in a final incubation mixture (150 μL) comprised of 25 mM Tris (pH=8.0), 5 mM EDTA, 33 μg/ml BSA, and 20 μM fluorescein diphosphate in 96-well microtiter plates. Plates were preincubated for 1 hour with 0 (control), 0.3, 1, 3, 10, 30, 100 μM compounds at room temperature. After the 1 hour incubation at room temperature, fluorescence of the fluorescein product (Ex. 485 nm; Em. 530 nm) were measured with a Biosystems Cytofluor II (Framingham, Mass.).
# Sequence of PP2A (P67774 whole entry): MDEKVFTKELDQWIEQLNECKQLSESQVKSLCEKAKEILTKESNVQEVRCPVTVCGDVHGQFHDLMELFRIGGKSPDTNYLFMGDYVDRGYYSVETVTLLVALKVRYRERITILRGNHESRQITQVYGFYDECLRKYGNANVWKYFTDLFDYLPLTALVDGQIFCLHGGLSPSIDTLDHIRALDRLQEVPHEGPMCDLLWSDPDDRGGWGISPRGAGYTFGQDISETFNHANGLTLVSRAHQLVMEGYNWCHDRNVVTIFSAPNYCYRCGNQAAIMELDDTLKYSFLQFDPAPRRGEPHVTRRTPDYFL
smiles,measurement,setting,value
CCCCCCCCCC(=O)NC(CCC(=O)N(CCNC(=O)c1nc(-c2ccccc2)oc1-c1ccccc1)Cc1ccccc1)C(=O)O (stereo not shown) [Compound 1f],cell cycle distribution,MDA-MB-231 cells; 48 h,prominent accumulation in the Gi phase with a concomitant decrease in both S and G2/M phases
same,cell cycle distribution,MDA-MB-231 cells; 72 h,prominent accumulation in the G1 phase
same,site of blockage in cell cycle progression,"MDA-MB-231 cells; MDA-MB-231, conclusion",blockage in cell cycle progression is at the G1 checkpoint
same,"PP3 remaining activity, percent of control",PP3,85%
same,"PP1 remaining activity, percent of control",PP1,117%
same,"PP2A remaining activity, % of control at 100 µM",PP2A,156%
same,"CDC25B activity remaining, percent of control",Recombinant human CDC25B,15%
